Data taken from article PMC5349447, “Applying a high-throughput fluorescence polarization assay for the discovery of chemical probes blocking La:RNA interactions in vitro and in cells” (PLoS ONE, 2017).

Molecular target: T1, La protein:fD1-RNA (Homo sapiens, UniProt P05455)
T1 construct: His; made in house; host or cells: E. coli BL21
T1 sequence (P05455 1-408): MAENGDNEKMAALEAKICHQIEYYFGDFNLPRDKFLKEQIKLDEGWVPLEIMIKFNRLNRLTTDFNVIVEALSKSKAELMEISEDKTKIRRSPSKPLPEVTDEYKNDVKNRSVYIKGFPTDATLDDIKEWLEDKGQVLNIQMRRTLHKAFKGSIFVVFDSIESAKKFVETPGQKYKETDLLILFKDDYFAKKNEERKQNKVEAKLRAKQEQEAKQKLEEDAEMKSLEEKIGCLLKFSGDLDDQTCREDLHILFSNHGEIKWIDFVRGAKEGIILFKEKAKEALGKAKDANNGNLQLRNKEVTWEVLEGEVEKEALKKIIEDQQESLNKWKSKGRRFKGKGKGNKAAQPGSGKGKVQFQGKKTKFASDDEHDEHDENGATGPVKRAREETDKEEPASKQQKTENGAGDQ
Experiment: La:RNA fluorescence polarization assay (La-FP)
Type: binding
Conditions: for IC50: 1.35 μM La, 0.8 μM fD1-RNA, compound at 25, 50, 100, 1000 μM, read-out: IC50, La:fD1-RNA complex formation (La-FP); for inhibition at 100 µM: compound 100 μM; for inhibition at 1000 µM: compound 1000 μM
Procedure: Measurements of fluorescence and fluorescence polarization were performed on a Spectramax M5 microplate reader (Molecular Devices, Sunnyvale, CA) with the excitation and emission wavelengths 544 nm and 590 nm, respectively. To block unwanted residual excitation light and minimize background interference, a 570 nm “cutoff” filter was applied. Black shallow 384-well micro plates (ProxiPlate ^TM– 384 F Plus, PerkinElmer) were used to record data. To minimize the polarization effects from fluorophore, which may be bound to the surface of the well, both excitation and emission data were recorded from the top of the well. Reading time was 100 ms per well. Millipolarization units (mP) were used to express fluorescence polarization values defined by the equation mP = 1000 x [(Iv—GIh) / (Iv+ GIh)], where Iv and Ih are parallel and perpendicular emission intensity measurements corrected for background (buffer), and G-factor.
The ratio of sensitivities of the detection system for vertically and horizontally polarized light G = Iv/Ih was determined with dilution series of the fluorescence-labeled cyclin D1-RNA oligonucleotide (fD1) only (free-tracer) using SoftMax® Pro Data Acquisition & Analysis Software (Molecular Devices, Sunnyvale, CA). The assay window–the specific binding ΔmP–was defined as the difference between fluorescence polarization (mP) for La protein:fD1 reactions (mPs) and fluorescence polarization of free-fD1 reactions (mPfree): ΔmP = mPs−mPfree.
The assay was formatted using 10 μl reaction volume per well. Assay buffer (20 mM Tris-HCl pH 7.5, 3.0 mM MgCl2, 0.5 mM EDTA, 150 mM NaCl, 0.05% IGEPAL, BGG 100 μg/ml (BGG = Bovine γ-Globulin or γ-Globulins from bovine blood)) was used to dilute all ingredients. Detergent was added to prevent the potential aggregation of small compounds. The aggregation of small compounds can lead to false-positive results in HTS approaches and is indicated by a high Hill factor[50]. To find the optimal concentration of the free fluorescent tracer (fD1), which gives low and stable fluorescence polarization signal, and to calculate the G-factor, 100–1000 nM fD1 dilution series were measured in quadruplicates. Using variable fD1 concentrations, the optimal tracer:protein ratio was determined in binding experiments with increasing concentrations of La protein (1.35–1350 nM). To start the reaction, fD1 and La protein stock solutions were mixed into each well. Each reaction was performed in quadruplicates. After shaking the plate for 2 min followed by 15 min incubation at room temperature, fluorescence polarization signals were recorded as described above. Fluorescence polarization measurements were performed on different days using 7 microtiter plates (111 samples total).
High-throughput screening against the ChemBridge DIVERSet library was carried out under the following conditions: 1 μl of each compound (dissolved in 100% DMSO) was pre-incubated with 8 μl of La protein for 30 min at room temperature, followed by an additional 15 min incubation with 1 μl of fD1 (final concentration of La, fD1, and DMSO in the 10 μl reaction: 1.35 μM La, 0.8 μM fD1, 10% DMSO). The reactions were performed in duplicate. In addition to samples with the compounds, each plate contained 2 background wells (10 μl buffer only), and at least 4 wells for Ps (La and fD1) and Pfree (fD1 alone) reactions. All samples included 10% DMSO. Pilot screening was carried out with 10 mM cocktails of 10 compounds (giving a final concentration of 100 μM for each compound). […] Using the same fluorescence polarization assay format, La protein (1.35 μM) was incubated with each potential hit compound at 25, 50, 100, 1000 μM (in triplicate) for 30 min, followed by an additional 15 min incubation with 0.8 μM fD1. Data points for specific binding (B) were normalized to the maximum specific binding (Bmax), which defines complete saturation of the La protein with fD1 in the absence of a compound (B/Bmax). […]

Structure (SMILES)	IC50	inhibition at 100 µM	inhibition at 1000 µM
O=C(O)c1ccccc1C(=O)c1ccc(O)cc1O [C2, 2-(2,4-dihydroxybenzoyl)benzoic acid]	7.5 µM	100%	100%
CCOC(=O)c1ccc2c(c1)C1C=CCC1C(C(=O)O)N2 (stereo not drawn) [C6, 8-(ethoxycarbonyl)-3a,4,5,9b-tetrahydro-3Hcyclopenta[c]quinoline-4-carboxylic acid]	2.5 µM	100%	100%
